This is an account of results in patent publication US12251400B2, “Liquid concentrates of calcium and magnesium” (BIOLINK LIFE SCIENCES, INC., priority 2019, dated 2025).

Molecules are shown by their SMILES.

The nature of the experiment: In vitro assessment of phosphate binding. The settings on record: 24 hours post-mixing. Here is the method:
Test Preparations: Solutions of the test article (calcium propionate and magnesium propionate) and control article (calcium acetate) are prepared in deionized, purified water having 18 MO or greater resistance. The pH of each solution is adjusted to the desired value by the addition of concentrated hydrochloric acid or sodium hydroxide, as appropriate.
Tests and Assays: An HPLC method with conductivity detection was developed and validated for use in the determination of propionate, acetate and phosphate. HPLC analysis is performed using a Dionex Aquion ion chromatography system Detection of the anionic species is enabled using a Dionex ED50 Electrochemical Detector, operating in Conductivity Mode. Limits of Detection and Quantitation are enhanced through the use of a Dionex Anion Self-Regenerating Suppressor. After assay-specific development and verification of assay performance is completed, the analysis of phosphate and propionate or acetate is performed by sampling the test solution and diluting it, if necessary, to a concentration within the linear range of the Assay. The sample is then injected onto the HPLC column and eluted with a sodium hydroxide gradient. Data is acquired using Dionex Chromeleon® software. […]

`CC(=O)[O-].CC(=O)[O-].[Ca+2]` [calcium acetate]: the Pi binding entry is, setting by setting: (pH 4.5) “about 60%”; (pH 6.8) “over 90%”.
